What was measured:
Test in all cases: KinaseProfiler
Format in all cases: biochemical
Conditions in all cases: 10 μM, ATP near Km
SGK3 = target: T1, SGK3 (Homo sapiens, UniProt Q96BR1)
T1 construct: purchased Millipore, Inc. (KinaseProfiler service)
Protocol: (§1) A representative compound (Example 15) of the invention was tested for off-target kinase activity at a concentration of 10 μM by Millipore, Inc. in their KinaseProfiler™ service against all the kinases available in their full kinase panel. The compound was run in duplicate at a concentration of ATP near the Km for each individual kinase according to Millipore's specifications. The results are shown in Table B. Data are reported as percent of control (POC) and are the average of the two replicates.

MYLK = target: T2, MYLK (Homo sapiens, UniProt Q15746)
T2 construct: purchased Millipore, Inc. (KinaseProfiler service)
Protocol: as §1

BLK_m = target: T3, BLK_m (Mus musculus, UniProt P16277)
T3 construct: purchased Millipore (KinaseProfiler service)
Protocol: as §1

Txk = target: T4, Txk (Homo sapiens, UniProt P42681)
T4 construct: purchased Millipore, Inc. (KinaseProfiler service)
Protocol: as §1

CLK2 = target: T5, CLK2 (Homo sapiens, UniProt P49760)
T5 construct: purchased Millipore, Inc. (KinaseProfiler service)
Protocol: as §1

CDK3/cyclinE = target: T6, CDK3/cyclinE (Homo sapiens, UniProt Q00526)
T6 construct: purchased Millipore, Inc. (KinaseProfiler service)
Protocol: as §1

Syk = target: T7, Syk (Homo sapiens, UniProt P43405)
T7 construct: purchased Millipore, Inc. (KinaseProfiler service)
Protocol: as §1

TSSK1 = target: T8, TSSK1 (Homo sapiens, UniProt Q9BXA7)
T8 construct: purchased Millipore, Inc. (KinaseProfiler service)
Protocol: as §1

PDK1 = target: T9, PDK1 (Homo sapiens, UniProt O15530)
T9 construct: purchased Millipore, Inc. (KinaseProfiler service)
Protocol: as §1

DMPK = target: T10, DMPK (Homo sapiens, UniProt Q09013)
T10 construct: purchased Millipore, Inc. (KinaseProfiler service)
Protocol: as §1

p38gamma = target: T11, p38gamma (Homo sapiens, UniProt P53778)
T11 construct: purchased Millipore, Inc. (KinaseProfiler service)
Protocol: as §1

MSK2 = target: T12, MSK2 (Homo sapiens, UniProt O75676)
T12 construct: purchased Millipore, Inc. (KinaseProfiler service)
Protocol: as §1

SRPK1 = target: T13, SRPK1 (Homo sapiens, UniProt Q96SB4)
T13 construct: purchased Millipore, Inc. (KinaseProfiler service)
Protocol: as §1

Axl = target: T14, Axl (Homo sapiens, UniProt P30530)
T14 construct: purchased Millipore (KinaseProfiler service)
Protocol: as §1

PAK2 = target: T15, PAK2 (Homo sapiens, UniProt Q13177)
T15 construct: purchased Millipore, Inc. (KinaseProfiler service)
Protocol: as §1

BrSK1 = target: T16, BrSK1 (Homo sapiens, UniProt Q8TDC3)
T16 construct: purchased Millipore (KinaseProfiler service)
Protocol: as §1

NEK7 = target: T17, NEK7 (Homo sapiens, UniProt Q8TDX7)
T17 construct: purchased Millipore, Inc. (KinaseProfiler service)
Protocol: as §1

ITK = target: T18, ITK (Homo sapiens, UniProt Q08881)
T18 construct: purchased Millipore, Inc. (KinaseProfiler service)
Protocol: as §1

Fgr = target: T19, Fgr (Homo sapiens, UniProt P09769)
T19 construct: purchased Millipore, Inc. (KinaseProfiler service)
Protocol: as §1

Plk2 = target: T20, Plk2 (Homo sapiens, UniProt Q9NYY3)
T20 construct: purchased Millipore, Inc. (KinaseProfiler service)
Protocol: as §1

ALK4 = target: T21, ALK4 (Homo sapiens, UniProt P36896)
T21 construct: purchased Millipore (KinaseProfiler service)
Protocol: as §1

FAK = target: T22, FAK (Homo sapiens, UniProt Q05397)
T22 construct: purchased Millipore, Inc. (KinaseProfiler service)
Protocol: as §1

CDK5/p35 = target: T23, CDK5/p35 (Homo sapiens, UniProt Q00535)
T23 construct: purchased Millipore, Inc. (KinaseProfiler service)
Protocol: as §1

p38alpha = target: T24, p38alpha (Homo sapiens, UniProt Q16539)
T24 construct: purchased Millipore, Inc. (KinaseProfiler service)
Protocol: as §1

MAPKAP-K5 = target: T25, MAPKAP-K5 (Homo sapiens, UniProt Q8IW41)
T25 construct: purchased Millipore, Inc. (KinaseProfiler service)
Protocol: as §1

FGFR2 = target: T26, FGFR2 (Homo sapiens, UniProt P21802)
T26 construct: purchased Millipore, Inc. (KinaseProfiler service)
Protocol: as §1

PKD2 = target: T27, PKD2 (Homo sapiens, UniProt Q9BZL6)
T27 construct: purchased Millipore, Inc. (KinaseProfiler service)
Protocol: as §1

MARK2 = target: T28, MARK2 (Homo sapiens, UniProt Q7KZI7)
T28 construct: purchased Millipore, Inc. (KinaseProfiler service)
Protocol: as §1

PRK2 = target: T29, PRK2 (Homo sapiens, UniProt Q16513)
T29 construct: purchased Millipore, Inc. (KinaseProfiler service)
Protocol: as §1

CAMK2d = target: T30, CAMK2d (Homo sapiens, UniProt Q13557)
T30 construct: purchased Millipore (KinaseProfiler service)
Protocol: as §1

Plk3 = target: T31, Plk3 (Homo sapiens, UniProt Q9H4B4)
T31 construct: purchased Millipore, Inc. (KinaseProfiler service)
Protocol: as §1

MAP3K5 = target: T32, MAP3K5 (Homo sapiens, UniProt Q99683)
T32 construct: purchased Millipore, Inc. (KinaseProfiler service)
Protocol: as §1

eEF-2K = target: T33, eEF-2K (Homo sapiens, UniProt O00418)
T33 construct: purchased Millipore, Inc. (KinaseProfiler service)
Protocol: as §1

PKCdelta = target: T34, PKCdelta (Homo sapiens, UniProt Q05655)
T34 construct: purchased Millipore, Inc. (KinaseProfiler service)
Protocol: as §1

TAO3 = target: T35, TAO3 (Homo sapiens, UniProt Q9H2K8)
T35 construct: purchased Millipore, Inc. (KinaseProfiler service)
Protocol: as §1

CK2 = target: T36, CK2 (Homo sapiens, UniProt P68400)
T36 construct: purchased Millipore, Inc. (KinaseProfiler service)
Protocol: as §1

TAO1 = target: T37, TAO1 (Homo sapiens, UniProt Q7L7X3)
T37 construct: purchased Millipore, Inc. (KinaseProfiler service)
Protocol: as §1

MST3 = target: T38, MST3 (Homo sapiens, UniProt Q9Y6E0)
T38 construct: purchased Millipore, Inc. (KinaseProfiler service)
Protocol: as §1

FGFR4 = target: T39, FGFR4 (Homo sapiens, UniProt P22455)
T39 construct: purchased Millipore, Inc. (KinaseProfiler service)
Protocol: as §1

Fer = target: T40, Fer (Homo sapiens, UniProt P16591)
T40 construct: purchased Millipore, Inc. (KinaseProfiler service)
Protocol: as §1

ULK2 = target: T41, ULK2 (Homo sapiens, UniProt Q8IYT8)
T41 construct: purchased Millipore, Inc. (KinaseProfiler service)
Protocol: as §1

T32 sequence (Q99683 whole entry): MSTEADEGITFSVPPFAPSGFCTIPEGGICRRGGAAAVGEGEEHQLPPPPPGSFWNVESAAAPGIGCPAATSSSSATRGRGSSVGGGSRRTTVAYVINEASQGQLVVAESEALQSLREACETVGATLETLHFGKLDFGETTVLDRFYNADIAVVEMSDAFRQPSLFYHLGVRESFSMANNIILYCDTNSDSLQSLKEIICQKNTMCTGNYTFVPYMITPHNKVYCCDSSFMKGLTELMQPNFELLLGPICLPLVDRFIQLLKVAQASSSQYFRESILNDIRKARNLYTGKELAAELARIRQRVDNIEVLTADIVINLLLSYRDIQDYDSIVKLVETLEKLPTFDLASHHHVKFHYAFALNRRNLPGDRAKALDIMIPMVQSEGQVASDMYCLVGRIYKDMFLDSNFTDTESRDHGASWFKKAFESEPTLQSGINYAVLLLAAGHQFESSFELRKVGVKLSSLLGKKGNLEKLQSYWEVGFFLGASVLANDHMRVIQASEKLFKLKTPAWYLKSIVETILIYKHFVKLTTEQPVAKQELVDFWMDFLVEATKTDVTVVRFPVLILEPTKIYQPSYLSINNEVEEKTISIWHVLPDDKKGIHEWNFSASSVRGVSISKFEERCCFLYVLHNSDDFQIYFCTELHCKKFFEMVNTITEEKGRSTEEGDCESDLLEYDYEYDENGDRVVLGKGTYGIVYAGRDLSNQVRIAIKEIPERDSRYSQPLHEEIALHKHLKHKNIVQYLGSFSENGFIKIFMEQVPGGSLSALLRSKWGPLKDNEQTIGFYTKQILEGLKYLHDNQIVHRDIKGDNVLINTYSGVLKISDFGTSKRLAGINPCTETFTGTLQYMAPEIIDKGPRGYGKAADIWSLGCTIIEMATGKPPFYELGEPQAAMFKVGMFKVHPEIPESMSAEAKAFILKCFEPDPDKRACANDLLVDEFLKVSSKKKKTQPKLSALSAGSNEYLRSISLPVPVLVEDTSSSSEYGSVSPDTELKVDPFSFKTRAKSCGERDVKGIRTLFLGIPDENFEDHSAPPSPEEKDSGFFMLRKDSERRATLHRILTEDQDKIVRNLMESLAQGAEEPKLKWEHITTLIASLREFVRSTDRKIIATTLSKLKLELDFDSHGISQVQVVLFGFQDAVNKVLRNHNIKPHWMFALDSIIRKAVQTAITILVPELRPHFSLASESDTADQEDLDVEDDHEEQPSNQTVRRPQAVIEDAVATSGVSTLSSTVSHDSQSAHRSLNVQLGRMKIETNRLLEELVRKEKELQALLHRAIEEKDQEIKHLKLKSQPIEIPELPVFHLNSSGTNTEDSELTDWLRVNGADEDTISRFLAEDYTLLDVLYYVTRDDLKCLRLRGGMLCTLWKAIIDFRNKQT
T26 sequence (P21802 22-821): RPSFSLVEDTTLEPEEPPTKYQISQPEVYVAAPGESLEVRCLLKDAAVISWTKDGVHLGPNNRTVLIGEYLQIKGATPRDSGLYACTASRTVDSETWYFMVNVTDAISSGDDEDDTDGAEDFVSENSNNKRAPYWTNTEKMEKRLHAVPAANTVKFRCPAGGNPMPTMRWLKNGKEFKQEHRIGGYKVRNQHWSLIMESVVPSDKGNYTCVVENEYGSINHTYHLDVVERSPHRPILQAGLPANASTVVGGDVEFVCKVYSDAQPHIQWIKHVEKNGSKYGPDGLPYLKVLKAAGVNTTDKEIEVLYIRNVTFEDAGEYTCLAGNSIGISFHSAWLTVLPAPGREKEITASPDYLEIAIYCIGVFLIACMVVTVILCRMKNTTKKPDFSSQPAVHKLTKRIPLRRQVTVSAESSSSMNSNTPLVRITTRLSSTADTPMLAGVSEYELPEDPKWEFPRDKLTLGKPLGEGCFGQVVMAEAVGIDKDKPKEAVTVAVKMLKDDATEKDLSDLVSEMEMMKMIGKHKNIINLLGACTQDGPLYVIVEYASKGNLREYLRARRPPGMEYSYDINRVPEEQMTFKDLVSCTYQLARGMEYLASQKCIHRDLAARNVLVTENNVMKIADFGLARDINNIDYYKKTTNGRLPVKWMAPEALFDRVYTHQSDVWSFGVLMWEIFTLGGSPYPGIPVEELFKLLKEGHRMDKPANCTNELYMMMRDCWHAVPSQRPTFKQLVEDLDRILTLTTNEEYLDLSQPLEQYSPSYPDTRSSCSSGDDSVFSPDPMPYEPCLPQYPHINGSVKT
T39 sequence (P22455 22-802): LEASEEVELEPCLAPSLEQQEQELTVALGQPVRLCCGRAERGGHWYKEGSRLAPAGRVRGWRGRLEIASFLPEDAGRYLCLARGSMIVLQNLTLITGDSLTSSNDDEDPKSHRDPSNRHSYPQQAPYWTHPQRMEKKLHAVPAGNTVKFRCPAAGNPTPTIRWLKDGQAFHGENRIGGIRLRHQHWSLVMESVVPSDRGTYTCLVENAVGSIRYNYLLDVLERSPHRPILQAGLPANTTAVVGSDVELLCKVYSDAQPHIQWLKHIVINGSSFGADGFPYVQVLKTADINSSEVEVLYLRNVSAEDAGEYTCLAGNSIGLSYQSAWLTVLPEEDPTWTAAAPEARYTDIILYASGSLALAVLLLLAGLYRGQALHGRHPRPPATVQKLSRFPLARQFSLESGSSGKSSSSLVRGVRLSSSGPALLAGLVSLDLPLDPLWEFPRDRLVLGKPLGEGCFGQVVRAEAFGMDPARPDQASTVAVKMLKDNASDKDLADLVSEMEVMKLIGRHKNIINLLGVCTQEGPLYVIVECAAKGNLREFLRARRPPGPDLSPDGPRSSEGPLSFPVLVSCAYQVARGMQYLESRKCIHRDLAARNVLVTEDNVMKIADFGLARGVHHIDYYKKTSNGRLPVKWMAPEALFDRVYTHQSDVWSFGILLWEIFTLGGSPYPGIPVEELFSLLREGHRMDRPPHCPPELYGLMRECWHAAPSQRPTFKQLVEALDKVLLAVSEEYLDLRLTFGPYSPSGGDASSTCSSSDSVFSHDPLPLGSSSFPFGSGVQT
T1 sequence (Q96BR1 whole entry): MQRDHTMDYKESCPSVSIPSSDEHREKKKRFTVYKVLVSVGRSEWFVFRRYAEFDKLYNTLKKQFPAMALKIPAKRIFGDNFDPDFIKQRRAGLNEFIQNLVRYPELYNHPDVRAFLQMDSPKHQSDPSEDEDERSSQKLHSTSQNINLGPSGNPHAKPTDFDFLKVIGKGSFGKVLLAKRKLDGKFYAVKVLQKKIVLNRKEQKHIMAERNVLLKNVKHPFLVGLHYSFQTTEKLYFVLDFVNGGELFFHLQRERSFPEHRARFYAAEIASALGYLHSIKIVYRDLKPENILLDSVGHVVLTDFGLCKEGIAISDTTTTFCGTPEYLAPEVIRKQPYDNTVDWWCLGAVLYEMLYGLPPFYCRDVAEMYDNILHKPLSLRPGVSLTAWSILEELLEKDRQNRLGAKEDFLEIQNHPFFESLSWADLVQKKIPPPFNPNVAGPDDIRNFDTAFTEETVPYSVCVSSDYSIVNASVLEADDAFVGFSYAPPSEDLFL
T29 sequence (Q16513 whole entry): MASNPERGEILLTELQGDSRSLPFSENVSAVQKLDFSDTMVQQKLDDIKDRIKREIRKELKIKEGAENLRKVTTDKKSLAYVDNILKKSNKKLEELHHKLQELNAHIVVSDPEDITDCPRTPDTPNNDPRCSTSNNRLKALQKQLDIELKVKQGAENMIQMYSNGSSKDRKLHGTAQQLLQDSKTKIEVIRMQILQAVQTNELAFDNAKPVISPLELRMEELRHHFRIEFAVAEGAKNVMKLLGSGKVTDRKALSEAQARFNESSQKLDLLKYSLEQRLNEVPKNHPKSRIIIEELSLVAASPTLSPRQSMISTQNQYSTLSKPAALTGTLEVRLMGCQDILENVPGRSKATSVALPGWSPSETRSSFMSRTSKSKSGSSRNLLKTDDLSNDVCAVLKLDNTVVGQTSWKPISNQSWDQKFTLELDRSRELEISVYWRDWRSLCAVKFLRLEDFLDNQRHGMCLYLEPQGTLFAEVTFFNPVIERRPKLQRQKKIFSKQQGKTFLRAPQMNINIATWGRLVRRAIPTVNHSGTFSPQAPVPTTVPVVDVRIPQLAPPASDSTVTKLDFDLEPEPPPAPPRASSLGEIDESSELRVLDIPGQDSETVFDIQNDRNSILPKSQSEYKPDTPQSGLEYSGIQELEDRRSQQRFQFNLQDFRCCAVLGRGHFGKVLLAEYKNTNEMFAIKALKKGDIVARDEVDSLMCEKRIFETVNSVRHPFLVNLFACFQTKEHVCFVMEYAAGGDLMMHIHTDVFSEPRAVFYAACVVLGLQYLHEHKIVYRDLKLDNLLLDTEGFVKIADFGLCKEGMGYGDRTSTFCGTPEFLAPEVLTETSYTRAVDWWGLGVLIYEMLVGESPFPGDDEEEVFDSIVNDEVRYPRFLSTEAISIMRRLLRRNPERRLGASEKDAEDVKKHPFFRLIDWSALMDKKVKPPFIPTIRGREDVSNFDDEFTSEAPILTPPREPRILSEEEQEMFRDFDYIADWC
T19 sequence (P09769 whole entry): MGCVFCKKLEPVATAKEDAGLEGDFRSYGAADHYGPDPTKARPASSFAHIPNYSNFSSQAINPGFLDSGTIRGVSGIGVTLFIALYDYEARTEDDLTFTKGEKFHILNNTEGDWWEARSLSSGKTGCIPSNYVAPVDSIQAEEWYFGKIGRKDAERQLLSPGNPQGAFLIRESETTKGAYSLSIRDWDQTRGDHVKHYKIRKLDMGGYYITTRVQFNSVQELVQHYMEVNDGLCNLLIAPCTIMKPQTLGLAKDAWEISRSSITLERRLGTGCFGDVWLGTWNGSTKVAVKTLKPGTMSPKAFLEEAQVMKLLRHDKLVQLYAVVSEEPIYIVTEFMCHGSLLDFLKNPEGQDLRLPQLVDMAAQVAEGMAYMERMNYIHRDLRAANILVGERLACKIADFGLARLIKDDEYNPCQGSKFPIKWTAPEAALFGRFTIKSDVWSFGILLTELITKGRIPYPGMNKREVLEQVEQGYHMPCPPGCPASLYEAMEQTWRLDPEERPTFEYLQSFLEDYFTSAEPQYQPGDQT

COCCCc1cc(Cl)c(Cl)cc1NC(=O)Nc1c(C)c(-c2cnn(C)c2)nn1-c1ccccc1 [Example 15, 1-(4,5-dichloro-2-(3-methoxypropyl)phenyl)-3-(1′,4-dimethyl-1-phenyl-1H,1′H-[3,4′-bipyrazol]-5-yl)urea]
Avg POC (SGK3): 132 POC | Avg POC (MYLK): 111.5 POC | Avg POC (BLK_m): 118.5 POC | Avg POC (Txk): 135.5 POC | Avg POC (CLK2): 111.5 POC | Avg POC (CDK3/cyclinE): 101 POC | Avg POC (Syk): 100 POC | Avg POC (TSSK1): 80 POC | Avg POC (PDK1): 116.5 POC | Avg POC (DMPK): 108.5 POC | Avg POC (p38gamma): 108 POC | Avg POC (MSK2): 147 POC | Avg POC (SRPK1): 112.5 POC | Avg POC (Axl): 107 POC | Avg POC (PAK2): 101.5 POC | Avg POC (BrSK1): 123.5 POC | Avg POC (NEK7): 142 POC | Avg POC (ITK): 125 POC | Avg POC (Fgr): 118 POC | Avg POC (Plk2): 105 POC | Avg POC (ALK4): 113 POC | Avg POC (FAK): 103.5 POC | Avg POC (CDK5/p35): 110 POC | Avg POC (p38alpha): 100.5 POC | Avg POC (MAPKAP-K5): 92 POC | Avg POC (FGFR2): 108 POC | Avg POC (PKD2): 98.5 POC | Avg POC (MARK2): 101.5 POC | Avg POC (PRK2): 101.5 POC | Avg POC (CAMK2d): 135.5 POC | Avg POC (Plk3): 109 POC | Avg POC (MAP3K5): 105 POC | Avg POC (eEF-2K): 181 POC | Avg POC (PKCdelta): 96 POC | Avg POC (TAO3): 95 POC | Avg POC (CK2): 94.5 POC | Avg POC (TAO1): 113 POC | Avg POC (MST3): 137 POC | Avg POC (FGFR4): 120 POC | Avg POC (Fer): 99 POC | Avg POC (ULK2): 95 POC

— US9790210B2, “N-(monocyclic aryl),N'-pyrazolyl-urea, thiourea, guanidine and cyanoguanidine compounds as TrkA kinase inhibitors” (Array BioPharma Inc., priority 2012, dated 2017)
